# Numbers after ± are expanded uncertainties.
# Test: not given
# Conditions: Crystal 1; DTA
row,Structure (SMILES),Normal melting temperature [°C]
1,CCCC[n+]1cccc(C)c1.O=S(=O)([O-])C(F)(F)F [1-butyl-3-methylpyridinium trifluoromethanesulfonate],30 ± 1
2,CCCCn1cc[n+](C)c1.N#CN=C=[N-] [1-butyl-3-methylimidazolium dicyanamide],-6 ± 1

# Same assay, conditions: Crystal 2; DTA
row,Structure (SMILES),Triple point temperature [K]
1,CCCCn1cc[n+](C)c1.N#CN=C=[N-] [1-butyl-3-methylimidazolium dicyanamide],225 ± 1

# Same assay, conditions: Crystal; DTA
row,Structure (SMILES),Normal melting temperature [°C]
1,CCCCn1cc[n+](C)c1.O=S(=O)([O-])C(F)(F)F [1-butyl-3-methylimidazolium trifluoromethanesulfonate],12 ± 1
2,CC[n+]1cccc(C)c1.O=S(=O)([N-]S(=O)(=O)C(F)(F)F)C(F)(F)F,-1 ± 1

# Same assay, conditions: Glass; DTA
row,Structure (SMILES),Glass transition temperature [°C]
1,CCCC[n+]1cccc(C)c1.O=S(=O)([O-])C(F)(F)F [1-butyl-3-methylpyridinium trifluoromethanesulfonate],-76 ± 2
2,CCCC[n+]1cccc(C)c1.O=S(=O)([N-]S(=O)(=O)C(F)(F)F)C(F)(F)F,-85 ± 2
3,CCCCn1cc[n+](C)c1.N#CN=C=[N-] [1-butyl-3-methylimidazolium dicyanamide],-92 ± 2
4,CCC[n+]1cccc(C)c1.O=S(=O)([N-]S(=O)(=O)C(F)(F)F)C(F)(F)F,-88 ± 2

# Same assay, conditions: Metastable crystal; DTA
row,Structure (SMILES),Normal melting temperature [°C]
1,CCCC[n+]1cccc(C)c1.O=S(=O)([O-])C(F)(F)F [1-butyl-3-methylpyridinium trifluoromethanesulfonate],-6 ± 1

# Test: molar heat capacity at constant pressure
# Conditions: 293.15 K; 101.33 kPa; Liquid; Large sample (1 g) DSC
row,Structure (SMILES),molar heat capacity at constant pressure [J/K/mol]
1,CCCC[n+]1cccc(C)c1.O=S(=O)([N-]S(=O)(=O)C(F)(F)F)C(F)(F)F,541 ± 55
2,CC[n+]1cccc(C)c1.O=S(=O)([N-]S(=O)(=O)C(F)(F)F)C(F)(F)F,484 ± 49
3,CCCCn1cc[n+](C)c1.N#CN=C=[N-] [1-butyl-3-methylimidazolium dicyanamide],372 ± 38
4,CCC[n+]1cccc(C)c1.O=S(=O)([N-]S(=O)(=O)C(F)(F)F)C(F)(F)F,510 ± 52

# Same assay, conditions: 294.15 K; 101.33 kPa; Liquid; Large sample (1 g) DSC
row,Structure (SMILES),molar heat capacity at constant pressure [J/K/mol]
1,CCCC[n+]1cccc(C)c1.O=S(=O)([N-]S(=O)(=O)C(F)(F)F)C(F)(F)F,542 ± 55
2,CC[n+]1cccc(C)c1.O=S(=O)([N-]S(=O)(=O)C(F)(F)F)C(F)(F)F,486 ± 49
3,CCCCn1cc[n+](C)c1.N#CN=C=[N-] [1-butyl-3-methylimidazolium dicyanamide],373 ± 38
4,CCC[n+]1cccc(C)c1.O=S(=O)([N-]S(=O)(=O)C(F)(F)F)C(F)(F)F,511 ± 52

# Same assay, conditions: 295.15 K; 101.33 kPa; Liquid; Large sample (1 g) DSC
row,Structure (SMILES),molar heat capacity at constant pressure [J/K/mol]
1,CCCC[n+]1cccc(C)c1.O=S(=O)([N-]S(=O)(=O)C(F)(F)F)C(F)(F)F,544 ± 55
2,CC[n+]1cccc(C)c1.O=S(=O)([N-]S(=O)(=O)C(F)(F)F)C(F)(F)F,487 ± 49
3,CCCCn1cc[n+](C)c1.N#CN=C=[N-] [1-butyl-3-methylimidazolium dicyanamide],374 ± 38
4,CCC[n+]1cccc(C)c1.O=S(=O)([N-]S(=O)(=O)C(F)(F)F)C(F)(F)F,513 ± 52

# Same assay, conditions: 296.15 K; 101.33 kPa; Liquid; Large sample (1 g) DSC
row,Structure (SMILES),molar heat capacity at constant pressure [J/K/mol]
1,CCCC[n+]1cccc(C)c1.O=S(=O)([N-]S(=O)(=O)C(F)(F)F)C(F)(F)F,546 ± 55
2,CC[n+]1cccc(C)c1.O=S(=O)([N-]S(=O)(=O)C(F)(F)F)C(F)(F)F,489 ± 49
3,CCCCn1cc[n+](C)c1.N#CN=C=[N-] [1-butyl-3-methylimidazolium dicyanamide],375 ± 38
4,CCC[n+]1cccc(C)c1.O=S(=O)([N-]S(=O)(=O)C(F)(F)F)C(F)(F)F,514 ± 52

# Same assay, conditions: 297.15 K; 101.33 kPa; Liquid; Large sample (1 g) DSC
row,Structure (SMILES),molar heat capacity at constant pressure [J/K/mol]
1,CCCC[n+]1cccc(C)c1.O=S(=O)([N-]S(=O)(=O)C(F)(F)F)C(F)(F)F,547 ± 55
2,CC[n+]1cccc(C)c1.O=S(=O)([N-]S(=O)(=O)C(F)(F)F)C(F)(F)F,490 ± 50
3,CCCCn1cc[n+](C)c1.N#CN=C=[N-] [1-butyl-3-methylimidazolium dicyanamide],375 ± 38
4,CCC[n+]1cccc(C)c1.O=S(=O)([N-]S(=O)(=O)C(F)(F)F)C(F)(F)F,516 ± 52

# Same assay, conditions: 298.15 K; 101.33 kPa; Liquid; Large sample (1 g) DSC
row,Structure (SMILES),molar heat capacity at constant pressure [J/K/mol]
1,CCCC[n+]1cccc(C)c1.O=S(=O)([N-]S(=O)(=O)C(F)(F)F)C(F)(F)F,548 ± 55
2,CC[n+]1cccc(C)c1.O=S(=O)([N-]S(=O)(=O)C(F)(F)F)C(F)(F)F,491 ± 50
3,CCCCn1cc[n+](C)c1.N#CN=C=[N-] [1-butyl-3-methylimidazolium dicyanamide],376 ± 38
4,CCC[n+]1cccc(C)c1.O=S(=O)([N-]S(=O)(=O)C(F)(F)F)C(F)(F)F,517 ± 52

# Same assay, conditions: 299.15 K; 101.33 kPa; Liquid; Large sample (1 g) DSC
row,Structure (SMILES),molar heat capacity at constant pressure [J/K/mol]
1,CCCC[n+]1cccc(C)c1.O=S(=O)([N-]S(=O)(=O)C(F)(F)F)C(F)(F)F,550 ± 56
2,CC[n+]1cccc(C)c1.O=S(=O)([N-]S(=O)(=O)C(F)(F)F)C(F)(F)F,493 ± 50
3,CCCCn1cc[n+](C)c1.N#CN=C=[N-] [1-butyl-3-methylimidazolium dicyanamide],377 ± 38
4,CCC[n+]1cccc(C)c1.O=S(=O)([N-]S(=O)(=O)C(F)(F)F)C(F)(F)F,518 ± 52

# Same assay, conditions: 300.15 K; 101.33 kPa; Liquid; Large sample (1 g) DSC
row,Structure (SMILES),molar heat capacity at constant pressure [J/K/mol]
1,CCCC[n+]1cccc(C)c1.O=S(=O)([N-]S(=O)(=O)C(F)(F)F)C(F)(F)F,551 ± 56
2,CC[n+]1cccc(C)c1.O=S(=O)([N-]S(=O)(=O)C(F)(F)F)C(F)(F)F,494 ± 50
3,CCCCn1cc[n+](C)c1.N#CN=C=[N-] [1-butyl-3-methylimidazolium dicyanamide],377 ± 38
4,CCC[n+]1cccc(C)c1.O=S(=O)([N-]S(=O)(=O)C(F)(F)F)C(F)(F)F,519 ± 52

# Same assay, conditions: 301.15 K; 101.33 kPa; Liquid; Large sample (1 g) DSC
row,Structure (SMILES),molar heat capacity at constant pressure [J/K/mol]
1,CCCC[n+]1cccc(C)c1.O=S(=O)([N-]S(=O)(=O)C(F)(F)F)C(F)(F)F,552 ± 56
2,CC[n+]1cccc(C)c1.O=S(=O)([N-]S(=O)(=O)C(F)(F)F)C(F)(F)F,495 ± 50
3,CCCCn1cc[n+](C)c1.N#CN=C=[N-] [1-butyl-3-methylimidazolium dicyanamide],378 ± 38
4,CCC[n+]1cccc(C)c1.O=S(=O)([N-]S(=O)(=O)C(F)(F)F)C(F)(F)F,520 ± 53

# Same assay, conditions: 302.15 K; 101.33 kPa; Liquid; Large sample (1 g) DSC
row,Structure (SMILES),molar heat capacity at constant pressure [J/K/mol]
1,CCCC[n+]1cccc(C)c1.O=S(=O)([N-]S(=O)(=O)C(F)(F)F)C(F)(F)F,553 ± 56
2,CC[n+]1cccc(C)c1.O=S(=O)([N-]S(=O)(=O)C(F)(F)F)C(F)(F)F,496 ± 50
3,CCCCn1cc[n+](C)c1.N#CN=C=[N-] [1-butyl-3-methylimidazolium dicyanamide],378 ± 38
4,CCC[n+]1cccc(C)c1.O=S(=O)([N-]S(=O)(=O)C(F)(F)F)C(F)(F)F,521 ± 53

# Same assay, conditions: 303.15 K; 101.33 kPa; Liquid; Large sample (1 g) DSC
row,Structure (SMILES),molar heat capacity at constant pressure [J/K/mol]
1,CCCC[n+]1cccc(C)c1.O=S(=O)([N-]S(=O)(=O)C(F)(F)F)C(F)(F)F,554 ± 56
2,CC[n+]1cccc(C)c1.O=S(=O)([N-]S(=O)(=O)C(F)(F)F)C(F)(F)F,497 ± 50
3,CCCCn1cc[n+](C)c1.N#CN=C=[N-] [1-butyl-3-methylimidazolium dicyanamide],379 ± 38
4,CCC[n+]1cccc(C)c1.O=S(=O)([N-]S(=O)(=O)C(F)(F)F)C(F)(F)F,522 ± 53

# Same assay, conditions: 304.15 K; 101.33 kPa; Liquid; Large sample (1 g) DSC
row,Structure (SMILES),molar heat capacity at constant pressure [J/K/mol]
1,CCCC[n+]1cccc(C)c1.O=S(=O)([N-]S(=O)(=O)C(F)(F)F)C(F)(F)F,555 ± 56
2,CC[n+]1cccc(C)c1.O=S(=O)([N-]S(=O)(=O)C(F)(F)F)C(F)(F)F,498 ± 50
3,CCCCn1cc[n+](C)c1.N#CN=C=[N-] [1-butyl-3-methylimidazolium dicyanamide],379 ± 38
4,CCC[n+]1cccc(C)c1.O=S(=O)([N-]S(=O)(=O)C(F)(F)F)C(F)(F)F,523 ± 53

# Same assay, conditions: 305.15 K; 101.33 kPa; Liquid; Large sample (1 g) DSC
row,Structure (SMILES),molar heat capacity at constant pressure [J/K/mol]
1,CCCC[n+]1cccc(C)c1.O=S(=O)([N-]S(=O)(=O)C(F)(F)F)C(F)(F)F,556 ± 56
